Measured values: US10752587B2, “Homobispiperidinyl derivatives as liver X receptor beta agonists, compositions and their use” (Merck Sharp & Dohme Corp., priority 2015, dated 2020)

Experiments:
[1] = target: T1, glutathione-S-transferase (GST) tagged LXRbeta LBD (ligand binding domain) (Homo sapiens, UniProt P55055); test: LanthaScreen TR-FRET Liver X Receptor Coactivator Assay, co-activator recruitment to LXRbeta LBD; type: biochemical; settings: for Emax: read-out: LXR beta Activity @ max dose (%); for EC50: potency (Inflection Point, IP), co-activator recruitment to LXRbeta LBD, in relation to T0901317, read-out: LXR beta IP
T1 construct: purchased Invitrogen pv4658.pps
T1 sequence (P55055 222-460 limits assumed): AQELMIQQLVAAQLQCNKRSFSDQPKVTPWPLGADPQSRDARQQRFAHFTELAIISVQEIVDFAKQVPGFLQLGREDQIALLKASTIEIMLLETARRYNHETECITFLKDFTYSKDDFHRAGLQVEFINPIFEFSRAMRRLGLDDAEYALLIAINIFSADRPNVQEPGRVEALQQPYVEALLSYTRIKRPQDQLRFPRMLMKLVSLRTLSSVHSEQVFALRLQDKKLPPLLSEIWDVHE
Summary of the method: (§1)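 GST-tagged LBD added to test compound, then fluorescein-labelled coactivator peptide plus terbium anti-GST antibody; incubated at room temperature, TR-FRET read. Potency given as inflection point and efficacy as Emax relative to reference dual agonist T0901317.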

[2] = target: T2, glutathione-S-transferase (GST) tagged LXRalpha LBD (ligand binding domain) (Homo sapiens, UniProt Q13133); test: LanthaScreen TR-FRET Liver X Receptor Coactivator Assay, co-activator recruitment to LXRalpha LBD; type: biochemical; settings: for Emax: read-out: LXR alpha Activity @ max dose (%); for LXR alpha IP (nM) / EC50: potency (Inflection Point, IP), co-activator recruitment to LXRalpha LBD, in relation to T0901317; for EC50: read-out: LXR alpha IP
T2 construct: purchased Invitrogen pv4655
T2 sequence (Q13133 209-447 limits assumed): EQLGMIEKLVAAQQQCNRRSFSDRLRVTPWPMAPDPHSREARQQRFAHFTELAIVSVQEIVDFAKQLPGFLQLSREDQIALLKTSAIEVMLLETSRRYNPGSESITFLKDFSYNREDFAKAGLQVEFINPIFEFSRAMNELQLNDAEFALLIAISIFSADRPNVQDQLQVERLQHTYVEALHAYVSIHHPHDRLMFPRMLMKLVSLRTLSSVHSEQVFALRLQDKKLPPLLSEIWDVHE
Summary of the method: as §1

[3] = efficacy at max dose, in relation to reference dual agonist T0901317

Structure (SMILES) | Emax [1, 3] | EC50 [1] | Emax [2, 3] | LXR alpha IP (nM) [2] | LXR beta Activity @ max dose (%) [1, 3] | LXR alpha Activity @ max dose (%) [2, 3] | EC50 [2]
CN(C)C(=O)c1ccc(N2CCC(CC3CN(C(=O)[C@](O)(c4cc(Cl)cc(Cl)c4)C(F)(F)F)C3)CC2)cc1Cl [Example 2-67, 2-chloro-4-[4-({1-[(2R)-2-(3,5-dichloro-phenyl)-3,3,3-trifluoro-2-hydroxy-propanoyl]azetidin-3-yl}methyl)piperidin-1-yl]-N,N-dimethyl-benzamide] | 77% | 19 nM | 9% | NO IP | – | – | –
CN(C)C(=O)c1ccc(N2CCC(CC3CCN(C(=O)C(O)(c4ccsc4)C(F)(F)F)CC3)CC2)cc1Cl (stereo not shown) [Example 2-30, 2-chloro-N,N-dimethyl-4-(4-{[1-(3,3,3-trifluoro-2-hydroxy-2-thiophen-3-ylpropanoyl)piperidin-4-yl]methyl}piperidin-1-yl)benzamide] | 64% | 36 nM | 25% | – | – | – | 821 nM
CN(C)C(=O)c1ccc(N2CCC(CC3CCN(C(=O)[C@](O)(c4cccc(Br)c4)C(F)(F)F)CC3)CC2)cc1 [Example 2-143, 4-[4-({1-[(2R)-2-(3-bromo-phenyl)-3,3,3-trifluoro-2-hydroxy-propanoyl]piperidin-4-yl}methyl)piperidin-1-yl]-N,N-dimethyl-benzamide] | 69% | 46 nM | 23% | – | – | – | 413 nM
CN(C)CCNC(=O)c1ccc(N2CCC(CC3CCN(C(=O)[C@](O)(c4ccccc4)C(F)(F)F)CC3)CC2)cc1Cl [Example 4-16, 2-chloro-N-[2-(dimethylamino)ethyl]-4-[4-({1-[(2R)-3,3,3-trifluoro-2-hydroxy-2-phenylpropanoyl]piperidin-4-yl}methyl)piperidin-1-yl]benzamide] | 64% | 183 nM | 28% | – | – | – | 688 nM
CN(C)C(=O)c1ccc(N2CCC(CC3CCN(C(=O)[C@](O)(c4cc(Cl)cc(Cl)c4)C(F)F)CC3)CC2)cc1Cl [Example 2-121, 2-chloro-4-[4-({1-[(2R)-2-(3,5-dichloro-phenyl)-3,3-difluoro-2-hydroxy-propanoyl]piperidin-4-yl}methyl)piperidin-1-yl]-N,N-dimethyl-benzamide] | 51% | 7 nM | 0% | NO IP | – | – | –
CN(C)C(=O)c1ccc(N2CCC(CCC3CCN(C(=O)[C@](O)(c4ccccc4)C(F)(F)F)CC3)CC2)cc1Cl [Example 2-162, 2-chloro-N,N-dimethyl-4-[4-(2-{1-[(2R)-3,3,3-trifluoro-2-hydroxy-2-phenyl-propanoyl]piperidin-4-yl}ethyl)piperidin-1-yl]benzamide] | 38% | 502 nM | 12% | NO IP | – | – | –
CC(C)C(O)(C(=O)N1CCC(CC2CCN(c3ccc(C(=O)N(C)C)c(Cl)c3)CC2)CC1)C(F)(F)F (stereo not shown) [Example 2-31, 2-chloro-4-[4-({1-[2-hydroxy-3-methyl-2-(trifluoro-methyl)butanoyl]piperidin-4-yl}methyl)piperidin-1-yl]-N,N-dimethyl-benzamide] | 74% | 784 nM | 24% | – | – | – | 4450 nM
CCc1cccc([C@@](O)(C(=O)N2CC(CC3CCN(c4ccc(C(=O)N(C)C)c(Cl)c4)CC3)C2)C(F)(F)F)c1 [Example 2-64, 2-chloro-4-[4-({1-[(2R)-2-(3-ethyl-phenyl)-3,3,3-trifluoro-2-hydroxy-propanoyl]azetidin-3-yl}methyl)piperidin-1-yl]-N,N-dimethyl-benzamide] | 75% | 30 nM | 18% | – | – | – | 1070 nM
CC(C)Oc1cccc([C@@](O)(C(=O)N2CCC(CC3CCN(c4ccc(C(=O)N(C)C)cc4)CC3)CC2)C(F)(F)F)c1 [Example 2-135, N,N-dimethyl-4-{4-[(1-{(2R)-3,3,3-trifluoro-2-hydroxy-2-[3-(1-methylethoxy)phenyl]propanoyl}piperidin-4-yl)methyl]piperidin-1-yl}benzamide] | 63% | 44 nM | 3% | NO IP | – | – | –

Continued, values first:

Emax [1, 3] | EC50 [1] | Emax [2, 3] | LXR alpha IP (nM) [2] | LXR beta Activity @ max dose (%) [1, 3] | LXR alpha Activity @ max dose (%) [2, 3] | EC50 [2] | Structure (SMILES)
– | 19 nM | – | NO IP | 60% | 7% | – | CNC(=O)c1ccc(N2CCC(CC3CCN(C(=O)[C@](O)(c4cccc(OC)c4)C(F)(F)F)CC3)CC2)cc1Cl [Example 7-127, 2-chloro-N-methyl-4-[4-({1-[(2R)-3,3,3-trifluoro-2-hydroxy-2-(3-methoxyphenyl)propanoyl]piperidin-4-yl}methyl)piperidin-1-yl]benzamide]
81% | 13 nM | 14% | NO IP | – | – | – | CNC(=O)c1ccc(N2CCC(CC3CCN(C(=O)[C@](O)(c4cccc(OC)c4)C(F)(F)F)CC3)CC2)nc1Cl [Example 7-135, 2-chloro-N-methyl-6-[4-({1-[(2R)-3,3,3-trifluoro-2-hydroxy-2-(3-methoxyphenyl)propanoyl]piperidin-4-yl}methyl)piperidin-1-yl]pyridine-3-carboxamide]
77% | 136 nM | 28% | – | – | – | 20 nM | COc1cccc([C@@](O)(C(=O)N2CC(CC3CCN(c4ccc(C(=O)N(C)C)c(C)n4)CC3)C2)C(F)(F)F)c1 [Example 7-10, N,N,2-trimethyl-6-[4-({1-[(2R)-3,3,3-trifluoro-2-hydroxy-2-(3-methoxyphenyl)propanoyl]azetidin-3-yl}methyl)piperidin-1-yl]pyridine-3-carboxamide]
54% | 118 nM | 10% | NO IP | – | – | – | CN(C)C(=O)c1ccc(N2CCC(CC3CCN(C(=O)[C@@](N)(c4ccccc4)C(F)(F)F)CC3)CC2)nc1Cl [Example 7-110, 6-[4-({1-[(2S)-2-amino-3,3,3-trifluoro-2-phenylpropanoyl]piperidin-4-yl}methyl)piperidin-1-yl]-2-chloro-N,N-dimethylpyridine-3-carboxamide]
118% | 64 nM | 12% | – | – | – | 1020 nM | CN(C)C(=O)c1ccc(N2CCC(CC3CCN(C(=O)[C@@](O)(c4cccc(Br)c4)C(F)(F)F)CC3)CC2)nc1Cl [Example 7-68, 6-[4-({1-[(2S)-2-(3-bromophenyl)-3,3,3-trifluoro-2-hydroxypropanoyl]piperidin-4-yl}methyl)piperidin-1-yl]-2-chloro-N,N-dimethylpyridine-3-carboxamide]
59% | 5 nM | 9% | – | – | – | 141 nM | Cc1cccc(C(O)(C(=O)N2CCC(CC3CCN(c4ccc(C(=O)N(C)C)c(Cl)n4)CC3)CC2)C(F)(F)F)c1 (stereo not shown) [Example 7-55, 2-chloro-N,N-dimethyl-6-[4-({1-[3,3,3-trifluoro-2-hydroxy-2-(3-methylphenyl)propanoyl]piperidin-4-yl}methyl)piperidin-1-yl] pyridine-3-carboxamide]
111% | 7 nM | 53% | – | – | – | 106 nM | CN(C)C(=O)c1ccc(N2CCC(CC3CCN(C(=O)C(O)(c4cc(F)cc(F)c4)C(F)(F)F)CC3)CC2)nc1Cl (stereo not shown) [Example 7-82, 2-chloro-6-[4-({1-[2-(3,5-difluorophenyl)-3,3,3-trifluoro-2-hydroxypropanoyl]piperidin-4-yl}methyl)piperidin-1-yl]-N,N-dimethylpyridine-3-carboxamide]
100% | 4 nM | 63% | – | – | – | 51 nM | CNC(=O)c1ccc(N2CCC(CC3CCN(C(=O)[C@](O)(c4cccc(Cl)c4)C(F)(F)F)CC3)CC2)nc1Cl [Example 7-147, 2-chloro-6-[4-({1-[(2R)-2-(3-chlorophenyl)-3,3,3-trifluoro-2-hydroxypropanoyl]piperidin-4-yl}methyl)piperidin-1-yl]-N-methylpyridine-3-carboxamide]
86% | 14 nM | 6% | NO IP | – | – | – | CNC(=O)c1ccc(N2CCC(CC3CCN(C(=O)[C@](O)(c4cccc(OC(C)C)c4)C(F)(F)F)CC3)CC2)nc1Cl [Example 7-136, 2-chloro-N-methyl-6-{4-[(1-{(2R)-3,3,3-trifluoro-2-hydroxy-2-[3-(1-methylethoxy)phenyl]propanoyl}piperidin-4-yl)methyl]piperidin-1-yl}pyridine-3-carboxamide]
40% | 7 nM | 23% | – | – | – | 30 nM | CCc1cccc([C@@](O)(C(=O)N2CCC(CC3CCN(c4ccc(C(N)=O)c(Cl)c4)CC3)CC2)C(F)(F)F)c1 [Example 12-6, 2-chloro-4-[4-({1-[(2R)-2-(3-ethylphenyl)-3,3,3-trifluoro-2-hydroxy-propanoyl]piperidin-4-yl}methyl)piperidin-1-yl]benzamide]
